What was measured:
M1 muscarinic receptor = target: T1, M1 muscarinic receptor (Homo sapiens, UniProt P11229); test: [3H]NMS competition binding, membranes from CHO cells expressing M1; details: competition with [3H]NMS, mean ± SD, three experiments, read-out: Binding affinity, negative logarithm of Ki (converted)
T1 construct: membranes
T1 sequence (P11229 1-460): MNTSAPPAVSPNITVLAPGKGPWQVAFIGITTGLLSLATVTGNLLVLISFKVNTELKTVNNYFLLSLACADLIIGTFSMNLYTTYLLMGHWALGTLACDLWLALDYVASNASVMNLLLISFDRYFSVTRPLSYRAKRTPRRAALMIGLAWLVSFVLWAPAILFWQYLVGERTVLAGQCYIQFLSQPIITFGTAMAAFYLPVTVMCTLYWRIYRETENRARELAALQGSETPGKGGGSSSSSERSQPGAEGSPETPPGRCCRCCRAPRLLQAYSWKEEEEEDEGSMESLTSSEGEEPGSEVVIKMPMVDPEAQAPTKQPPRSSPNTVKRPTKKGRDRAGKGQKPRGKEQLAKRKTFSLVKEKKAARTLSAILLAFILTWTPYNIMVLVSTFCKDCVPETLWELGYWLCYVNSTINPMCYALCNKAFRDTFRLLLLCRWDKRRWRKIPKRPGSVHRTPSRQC
Description: Cells were cultured as described previously by Randakova et al.[33]. […] The medium was supplemented with 5 mM butyrate for the last 24 h of culture to increase receptor expression. Cells were washed with (phosphate-buffered saline (PBS), mechanically harvested by scraper and centrifugated 1000 × g for 5 min. Cell pellets were kept at − 80 °C.
Membranes were prepared as described previously by Randakova et al.[33]. Cells harvested from twenty 100 mm petri dishes (CHO) or 30 ml of cell suspension (Sf9) were suspended in 20 ml of ice-cold incubation medium (100 mM NaCl, 20 mM Na-HEPES, 10 mM MgCl2, pH 7.4) supplemented with 10 mM EDTA and homogenized on ice by two 30‐s strokes using a Polytron homogenizer (Ultra-Turrax; Janke & Kunkel GmbH & Co. KG, IKA-Labortechnik, Staufen, Germany) with a 30 s pause between strokes. Cell homogenates were centrifuged for 5 min at 1000×g to remove whole cells and cell nuclei. The resulting supernatants were centrifuged for 30 min at 30,000×g. Pellets were suspended in a fresh incubation medium, incubated on ice for 30 min, and centrifuged again. The resulting membrane pellets were kept at − 80 °C until assayed within 10 weeks.
Non-specific binding was determined in the presence of 10 μM unlabelled atropine. Incubations were terminated by filtration through filtration plates multiscreen 96 well Harvest (Merck Millipore) using a Brandel cell harvester (Brandel, Gaithersburg, MD, USA). Filtration plates were dried in a microwave oven, and then 40 μl of liquid scintillator Rotiscint eco plus (Roth) was added. The filtration plates were counted in the Microbeta scintillation counter (PerkinElmer). […] The inhibition constant KI was calculated according to Eq. (2).
Inhibition constants KI were calculated according to Eq. (2).2 KI=IC50/1+D/KD where IC50 is calculated according to Eq.

M1 receptor [1] = target: T2, M1 receptor (Homo sapiens, UniProt P11229); test: BRET real-time monitoring of Gq/11 activation via M1 in HEK293T/17 cells; format: cell-based; set-up: expressed in transfected cells; host or cells: HEK293T/17 cells, transient transfection; details: for Activation of Gαq/11 types: saturating concentration (100 μM; 1 mM for JB-12-2, JB-13-1); for Activation magnitude at G11, % of CBC / Activation magnitude at G15, % of CBC / Activation magnitude at Gq, % of CBC / Activation magnitude at Gα14, % of CBC: 100 μM
T2 sequence (P11229 1-460): T1 sequence (P11229 1-460)
Description: HE/K293T17 cells were obtained from The Global Bioresource Center ATCC (Manassas, VA, USA). Cells were grown in 100 mm petri dishes in Dulbecco’s modified Eagle’s medium (DMEM) supplemented with 10% fetal bovine serum (FBS), MEM non-essential amino acids, 1 mM sodium pyruvate, and antibiotics (100 units/ml penicillin and 100 μg/ml streptomycin) at 37 °C in a humidified incubator containing 5% CO2[41]. Transfection was performed according to Masuho et al.[41]. […] Gα14 subunit was co-transfected with Ric-8A chaperone (0.21 μg). Cells were cotransfected with a pcDNA3.1 construct encoding the catalytic subunit of pertussis toxin (PTX-S1) (0.21 μg) and constructs encoding Gα15, Gα14, Gα11, Gαq to ensure that the small BRET signals were not contaminated by the possible recruitment of endogenous Gαi/o proteins. The empty vector pcDNA3.1 was used to normalize the amount of DNA in each transfection.
To examine the activation of G-protein signalling in live cells, agonist-dependent cellular measurements of BRET between Venus-Gβ1γ2 and masGRK3ct-Nluc were performed as described by Masuho et al.[41]. […] Cells were harvested by centrifugation at 500×g for 5 min and were resuspended in BRET buffer. About 50,000 to 100,000 cells per well were distributed in 96-well flat-bottomed white microplates (Greiner Bio-One) in a volume of 25 µl. […] BRET measurements were made with a microplate reader (POLARstar Omega, BMG Labtech) equipped with two emission photomultiplier tubes, which enabled the detection of two emissions simultaneously with the highest possible resolution of 20 ms per data point. All measurements were performed at room temperature. […] The average baseline value (basal BRET ratio) recorded before stimulation of cells with an agonist was subtracted from the experimental BRET signal values to obtain the ΔBRET ratio.

[2] = target: individual subtypes of muscarinic receptors (M1–M5); set-up: method as in PMID 31910288; details: summary of Table 1 over subtypes; read-out: Affinity; cited from earlier work
M1 receptor [3] = target: T2, M1 receptor; set-up: expressed in transfected cells; method as in PMID 31910288; details: CHO expressing M1; cited from earlier work

Compound	Ki (M1 muscarinic receptor)	Activation of Gαq/11 types (M1 receptor [1])	Ki [2]	IP production (M1 receptor [3])	Activation magnitude at G11, % of CBC (M1 receptor [1])	Activation magnitude at G15, % of CBC (M1 receptor [1])	Activation magnitude at Gq, % of CBC (M1 receptor [1])	Activation magnitude at Gα14, % of CBC (M1 receptor [1])
c1csc(C[N+]23CCC(CC2)CC3)c1 [JB-8A]	6.92 µM	did not activate any Gαq/11 type						
C[N+]1(Cc2cccs2)CCOCC1 [JB-12-2]	85.1 µM	activated all Gαq/11 types						
COC(=O)C1=CCCN(Cc2cccs2)C1 [JB-13-1]	115 µM	did not activate any Gαq/11 type						
C[N+]1(Cc2cccs2)CC=CCC1 (stereo not shown) [JR-6, 1-methyl-1-[(thiophen-2-yl)methyl]-1,2,3,6-tetra hydropyridin-1-ium]			~10 µM	weak IP production	approximately 50%	approximately 50%	approximately 50%	approx. 10%
C[N+]1(Cc2ccc(Cl)s2)CC=CCC1 (stereo not shown) [PN-152, 1-[(5-chlorothiophen-2-yl)methyl]-1-methyl-1,2,3,6-tetrahydropyridin-1-ium]					approx. 30%	approx. 30%	approx. 30%	did not activate

— article PMC11053168, “Agonist-selective activation of individual G-proteins by muscarinic receptors” (Scientific Reports, 2024)
